Reference: ChEMBL document CHEMBL3608201, “Synthesis and biological evaluation of levofloxacin core-based derivatives with potent antibacterial activity against resistant Gram-positive pathogens” (Bioorg Med Chem Lett, 2015)
In brackets after ≈: the same amount, converted by molar mass.

How the values were obtained:
[1] = test system: Staphylococcus epidermidis; assay: Antimicrobial activity against Staphylococcus epidermidis ATCC 12228 by standard broth microdilution method; format: functional
Streptococcus pyogenes = assay: Antimicrobial activity against Streptococcus pyogenes ATCC 19615 by standard broth microdilution method; format: functional
Escherichia coli [2] = assay: Antimicrobial activity against Escherichia coli ATCC 25922 by standard broth microdilution method; format: functional
Streptococcus pneumoniae [3] = assay: Antimicrobial activity against Streptococcus pneumoniae ATCC 49619 by standard broth microdilution method; format: functional
Staphylococcus aureus [4] = assay: Antimicrobial activity against Staphylococcus aureus ATCC 25923 by standard broth microdilution method; format: functional
[5] = Aqueous solubility of the compound in water; format: physicochemical
Escherichia coli [6] = assay: Antimicrobial activity against ciprofloxacin-resistant Escherichia coli clinical isolates by standard broth microdilution method; format: functional
Staphylococcus aureus [7] = assay: Antimicrobial activity against methicillin-resistant Staphylococcus aureus clinical isolates by standard broth microdilution method; format: functional
Pseudomonas aeruginosa = assay: Antimicrobial activity against Pseudomonas aeruginosa ATCC 27853 by standard broth microdilution method; format: functional
Staphylococcus aureus [8] = assay: Antimicrobial activity against levofloxacin-resistant Staphylococcus aureus clinical isolates by standard broth microdilution method; format: functional
[9] = test system: Staphylococcus epidermidis; assay: Antimicrobial activity against methicillin-resistant Staphylococcus epidermidis clinical isolates by standard broth microdilution method; format: functional
Streptococcus pneumoniae [10] = assay: Antimicrobial activity against penicillin-resistant Streptococcus pneumoniae clinical isolates by standard broth microdilution method; format: functional
[11] = Toxicity in ICR mouse administered as single intravenous dose; format: organism-based; conditions: in vivo
Staphylococcus aureus [12] = assay: Potency index, ratio of MIC for levofloxacin to MIC for test compound against methicillin-resistant Staphylococcus aureus clinical isolates by standard broth microdilution method; format: functional
Staphylococcus aureus [13] = assay: Potency index, ratio of MIC for moxifloxacin to MIC for test compound against methicillin-resistant Staphylococcus aureus clinical isolates by standard broth microdilution method; format: functional
Staphylococcus aureus [14] = assay: Potency index, ratio of MIC for ciprofloxacin to MIC for test compound against Staphylococcus aureus ATCC 25923 by standard broth microdilution method; format: functional
Staphylococcus aureus [15] = assay: Potency index, ratio of MIC for moxifloxacin to MIC for test compound against Staphylococcus aureus ATCC 25923 by standard broth microdilution method; format: functional

| SMILES | MIC [1] [µg/mL] | MIC (Streptococcus pyogenes) [µg/mL] | MIC (Escherichia coli [2]) [µg/mL] | MIC (Streptococcus pneumoniae [3]) [µg/mL] | MIC (Staphylococcus aureus [4]) [µg/mL] | solubility [5] [µg/mL] | MIC (Escherichia coli [6]) [µg/mL] | MIC (Staphylococcus aureus [7]) [µg/mL] | MIC (Pseudomonas aeruginosa) [µg/mL] | MIC (Staphylococcus aureus [8]) [µg/mL] | MIC [9] [µg/mL] | MIC (Streptococcus pneumoniae [10]) [µg/mL] | LD50 [11] [mg/kg] | Ratio (Staphylococcus aureus [12]) | Ratio (Staphylococcus aureus [13]) | Ratio (Staphylococcus aureus [14]) | Ratio (Staphylococcus aureus [15]) |
| --- | --- | --- | --- | --- | --- | --- | --- | --- | --- | --- | --- | --- | --- | --- | --- | --- | --- |
| O=C(O)c1cn(C2CC2)c2cc(N3CCNCC3)c(F)cc2c1=O [CIPROFLOXACIN] | 0.0625 (≈ 0.189 µM) | 0.5 (≈ 1.51 µM) | ≤ 0.016 | 2 (≈ 6.04 µM) | – | – | – | – | – | – | – | – | – | – | – | – | – |
| C[C@H]1COc2c(N3CC[C@H](O)C3)c(F)cc3c(=O)c(C(=O)O)cn1c23.O | 0.125 | ≤ 0.016 | 0.031 | 0.125 | 0.031 | 370 | 0.0625 | 2 | 1 | 0.25 | 1 | ≤ 0.016 | – | – | – | – | – |
| O=C(O)c1cn2c3c(c(N4CC[C@H](O)C4)c(F)cc3c1=O)OC[C@@H]2CF | 0.031 (≈ 0.0846 µM) | ≤ 0.016 | 0.25 (≈ 0.682 µM) | 0.125 (≈ 0.341 µM) | 0.031 (≈ 0.0846 µM) | 440 (≈ 1200 µM) | 0.5 (≈ 1.36 µM) | 1 (≈ 2.73 µM) | 1 (≈ 2.73 µM) | 0.5 (≈ 1.36 µM) | 0.5 (≈ 1.36 µM) | 0.031 (≈ 0.0846 µM) | – | – | – | – | – |
| C[C@H]1COc2c(N3CC[C@@H](O)C3)c(F)cc3c(=O)c(C(=O)O)cn1c23 | 0.0625 (≈ 0.179 µM) | 0.25 (≈ 0.718 µM) | 0.125 (≈ 0.359 µM) | 0.25 (≈ 0.718 µM) | 0.0625 (≈ 0.179 µM) | – | 0.5 (≈ 1.44 µM) | 4 (≈ 11.5 µM) | 8 (≈ 23 µM) | 2 (≈ 5.74 µM) | 2 (≈ 5.74 µM) | 0.5 (≈ 1.44 µM) | – | – | – | – | – |
| C[C@H]1COc2c(N3CCN(C)CC3)c(F)cc3c(=O)c(C(=O)O)cn1c23.C[C@H]1COc2c(N3CCN(C)CC3)c(F)cc3c(=O)c(C(=O)O)cn1c23.O [LEVOFLOXACIN] | 0.125 | 0.5 | ≤ 0.016 | – | 0.25 | – | 8 | 32 | – | 4 | 8 | – | 358 | – | – | – | – |
| O=C(O)c1cn2c3c(c(N4CCC(O)CC4)c(F)cc3c1=O)OC[C@@H]2CF | 0.0625 (≈ 0.164 µM) | 0.031 (≈ 0.0815 µM) | 1 (≈ 2.63 µM) | 0.125 (≈ 0.329 µM) | 0.0625 (≈ 0.164 µM) | – | 2 (≈ 5.26 µM) | 2 (≈ 5.26 µM) | 2 (≈ 5.26 µM) | 0.5 (≈ 1.31 µM) | 1 (≈ 2.63 µM) | 0.031 (≈ 0.0815 µM) | – | – | – | – | – |
| C[C@H]1COc2c(N3CC[C@H](O)C3)c(F)cc3c(=O)c(C(=O)O)cn1c23 | 0.031 (≈ 0.089 µM) | 2 (≈ 5.74 µM) | ≤ 0.016 | 2 (≈ 5.74 µM) | 0.031 (≈ 0.089 µM) | – | 0.0625 (≈ 0.179 µM) | 1 (≈ 2.87 µM) | 1 (≈ 2.87 µM) | 0.25 (≈ 0.718 µM) | 1 (≈ 2.87 µM) | 2 (≈ 5.74 µM) | – | 32 | 4 | – | – |
| CC1(C)S[C@@H]2[C@H](NC(=O)Cc3ccccc3)C(=O)N2[C@H]1C(=O)O [PENICILLIN G] | – | 1 (≈ 2.99 µM) | – | 1 (≈ 2.99 µM) | – | – | – | – | – | – | – | 1 (≈ 2.99 µM) | – | – | – | – | – |
| C[C@H]1COc2c(N3CC(O)C3)c(F)cc3c(=O)c(C(=O)O)cn1c23 | 0.0625 (≈ 0.187 µM) | 0.125 (≈ 0.374 µM) | 0.125 (≈ 0.374 µM) | 0.25 (≈ 0.748 µM) | 0.0625 (≈ 0.187 µM) | – | 0.5 (≈ 1.5 µM) | 8 (≈ 23.9 µM) | 4 (≈ 12 µM) | 1 (≈ 2.99 µM) | 2 (≈ 5.98 µM) | 0.5 (≈ 1.5 µM) | – | – | – | – | – |
| C[C@H]1COc2c(N3CCC(O)CC3)c(F)cc3c(=O)c(C(=O)[O-])cn1c23.[K+] | 0.0625 | 0.25 | 0.5 | 0.5 | 0.0625 | – | 1 | 8 | 2 | 4 | 2 | 0.25 | – | – | – | – | – |
| O=C(O)c1cn2c3c(c(N4CC[C@@H](O)C4)c(F)cc3c1=O)OC[C@@H]2CF | 0.0625 (≈ 0.171 µM) | 0.0625 (≈ 0.171 µM) | 0.125 (≈ 0.341 µM) | 0.5 (≈ 1.36 µM) | 0.25 (≈ 0.682 µM) | – | 1 (≈ 2.73 µM) | 4 (≈ 10.9 µM) | 2 (≈ 5.46 µM) | 2 (≈ 5.46 µM) | 2 (≈ 5.46 µM) | 0.25 (≈ 0.682 µM) | – | – | – | – | – |
| COc1c(N2C[C@@H]3CCCN[C@@H]3C2)c(F)cc2c(=O)c(C(=O)O)cn(C3CC3)c12 [MOXIFLOXACIN] | ≤ 0.016 | 0.25 (≈ 0.623 µM) | 0.031 (≈ 0.0772 µM) | 0.25 (≈ 0.623 µM) | – | – | – | – | 4 (≈ 9.96 µM) | – | – | – | – | – | – | – | – |
| C[C@H]1COc2c(N3CC[C@H](O)C3)c(F)cc3c(=O)c(C(=O)[O-])cn1c23.[Na+] | 0.125 | 4 | 0.0625 | 4 | 0.0625 | – | 0.25 | 4 | 2 | 2 | 2 | 4 | – | – | – | – | – |
| O=C(O)c1cn2c3c(c(N4CC(O)C4)c(F)cc3c1=O)OC[C@@H]2CF | 0.0625 (≈ 0.177 µM) | 0.0625 (≈ 0.177 µM) | 0.25 (≈ 0.71 µM) | 0.25 (≈ 0.71 µM) | 0.125 (≈ 0.355 µM) | – | – | – | 4 (≈ 11.4 µM) | – | – | – | – | – | – | – | – |
| CN[C@H](CC(C)C)C(=O)N[C@H]1C(=O)N[C@@H](CC(N)=O)C(=O)N[C@H]2C(=O)N[C@H]3C(=O)N[C@H](C(=O)N[C@H](C(=O)O)c4cc(O)cc(O)c4-c4cc3ccc4O)[C@H](O)c3ccc(c(Cl)c3)Oc3cc2cc(c3O[C@@H]2O[C@H](CO)[C@@H](O)[C@H](O)[C@H]2O[C@H]2C[C@](C)(N)[C@H](O)[C@H](C)O2)Oc2ccc(cc2Cl)[C@H]1O [VANCOMYCIN] | – | 0.0625 (≈ 0.0431 µM) | – | 0.25 (≈ 0.173 µM) | – | – | – | – | – | – | – | 0.125 (≈ 0.0863 µM) | – | – | – | – | – |
| C[C@H]1COc2c(N3CC[C@H](O)C3)c(F)cc3c(=O)c(C(=O)[O-])cn1c23.[K+] | 0.5 | 4 | 0.125 | 8 | 0.0625 | – | 0.5 | 4 | 4 | 2 | 4 | 4 | – | – | – | – | – |
| C[C@H]1COc2c(N3CCC(O)CC3)c(F)cc3c(=O)c(C(=O)[O-])cn1c23.[Na+] | 0.0625 | 0.125 | 0.25 | 0.5 | 0.0625 | – | 0.5 | 4 | 2 | 2 | 2 | 0.125 | – | – | – | – | – |
| C[C@H]1COc2c(N3CCC(O)CC3)c(F)cc3c(=O)c(C(=O)O)cn1c23 | 0.031 (≈ 0.0856 µM) | 0.0625 (≈ 0.172 µM) | 0.125 (≈ 0.345 µM) | 0.125 (≈ 0.345 µM) | 0.031 (≈ 0.0856 µM) | 650 (≈ 1790 µM) | 0.25 (≈ 0.69 µM) | 1 (≈ 2.76 µM) | 2 (≈ 5.52 µM) | 0.5 (≈ 1.38 µM) | 0.5 (≈ 1.38 µM) | 0.031 (≈ 0.0856 µM) | – | – | – | 16 | 2 |
